Laboratory results taken from patent US20120129939A1, “POLYAMINE INHIBITORS FOR THE TREATMENT AND PREVENTION OF PARKINSON'S DISEASE” (priority 2009, published 2012).

Tests used:
[1] = tested on: Murine L1210 leukemia cells; test: Polyamine determinations (HPLC) in cultured cells treated with DFMO or DFMO analogs; format: cell-based; design: PUT (amount): unit not given beside the values; SPD (amount) / SPM (amount) / [PUT] (concentration) / [SPD] (concentration) / [SPM] (concentration) / 48 hr avg put / 48 hr avg spd: unit not given here; conditions: for 24 hr avg put / 24 hr avg spd / 24 hr avg spm / 48 hr avg put / 48 hr avg spd / 48 hr avg spm: average of 10, 50, 100 uM treatments; for 24 hr avg put / 24 hr avg spd / 24 hr avg spm: 24 hour treatment
Description: Cell Growth. […] After 24 or 48 h, cells were removed from tubes for counting and viability determinations. Cell number was determined by electronic particle counting (Model 2F Coulter Counter; Coulter Electron-ics, Hialeah, Fla.) and confirmed periodically with hemocytometer measurements. […] The percentage of control growth was determined as follows. Cell samples were washed twice in cold PBS, and an aliquot of […] was removed for polyamine determination. The cells were pelleted, and the PBS supernatant was carefully removed with a cotton swab. […] The supernatant was frozen at -20° C. until analysis by HPLC. […] The column temperature was maintained at 65° C. with water from a circulating bath. The column was eluted at a flow rate of 16 ml/h with an initial column pressure of 500 psi which decreased with increasing ionic strength of the elution buffer. […] The column was reequilibrated for 10 min with Buffer 1 prior to loading the next sample. The column eluate was derivatized with 0.05% o-phthalaldehyde (Durrum Chemical Corp.) in 0.4M borate buffer (pH 10.4) containing […] and 0.09% Brij 35. The o-phthalaldehyde reagent flow rate was 8 ml/h. The derivatized eluate was analyzed for polyamine content by passing it through the flow cell of a […] (Fluoro-Monitor; American Instrument Co., Silver Spring, Md.) with a fixed excitation wavelength of 360 nm and emission wavelength of […]. Data were analyzed using a Hewlett Packard Model […] automation system.

[2] = tested on: yeast expressing α-synuclein (wildtype and A53T); conditions: YPGal medium, spermine 0, 0.2, 0.4 mM; Syn-WT and Syn-A53T versus empty vector strain
α-synuclein = α-synuclein (Homo sapiens, UniProt P37840); conditions: in vitro system, exogenously added (Antony 2003); cited from earlier work
[3] = 10 uM treatment, 24 hr treatment
[4] = 10 uM treatment, 48 hour treatment
[5] = 50 uM treatment, 24 hr treatment
[6] = 50 uM treatment, 48 hour treatment
[7] = 100 uM treatment, 24 hr treatment
[8] = 100 uM treatment, 48 hour treatment

## CCOC(=O)C(CCCNC(=O)OC)(NC(=O)OC)C(F)F (stereo not shown) [DFMO Analog 2]
[1]; [3]
  PUT (amount): 56963
  SPD (amount): 651020
  SPM (amount): 481606
  [PUT] (concentration): 0.02773
  [SPD] (concentration): 0.799
  [SPM] (concentration): 1.556
[1]; [4]
  PUT (amount): 124533
  SPD (amount): 3898235
  SPM (amount): 4032041
  [PUT] (concentration): 0.06062
  [SPD] (concentration): 4.784
  [SPM] (concentration): 13.03
[1]; [5]
  PUT (amount): 379546
  SPD (amount): 3615812
  SPM (amount): 2470785
  [PUT] (concentration): 0.1847
  [SPD] (concentration): 4.438
  [SPM] (concentration): 7.985
[1]; [6]
  PUT (amount): 34544
  SPD (amount): 848798
  SPM (amount): 693740
  [PUT] (concentration): 0.01681
  [SPD] (concentration): 1.042
  [SPM] (concentration): 2.242
[1]; [7]
  PUT (amount): 27933
  SPD (amount): 323941
  SPM (amount): 212917
  [PUT] (concentration): 0.0136
  [SPD] (concentration): 0.3976
  [SPM] (concentration): 0.6881
[1]; [8]
  PUT (amount): 7198
  SPD (amount): 231781
  SPM (amount): 236426
  [PUT] (concentration): 0.003504
  [SPD] (concentration): 0.2845
  [SPM] (concentration): 0.764
[1]
  24 hr avg put: 0.07535
  24 hr avg spd: 1.878
  24 hr avg spm: 3.41
[1]; 48 hour treatment
  48 hr avg put: 0.02698
  48 hr avg spd: 2.037
  48 hr avg spm: 5.345

## NCCC[C@](N)(C(=O)O)C(F)F [DFMO, α-difluoromethylornithine, reference compound]
[1]; [3]
  PUT (amount): 63429
  SPD (amount): 2369255
  SPM (amount): 2363841
  [PUT] (concentration): 0.03087
  [SPD] (concentration): 2.908
  [SPM] (concentration): 7.639
[1]; [4]
  SPD (amount): 254356
  SPM (amount): 373610
  [PUT] (concentration): 0
  [SPD] (concentration): 0.3122
  [SPM] (concentration): 1.207
[1]; [5]
  SPD (amount): 542711
  SPM (amount): 1315606
  [PUT] (concentration): 0
  [SPD] (concentration): 0.6661
  [SPM] (concentration): 4.251
[1]; [6]
  SPD (amount): 44007
  SPM (amount): 482723
  [PUT] (concentration): 0
  [SPD] (concentration): 0.05401
  [SPM] (concentration): 1.56
[1]; [7]
  SPD (amount): 42842
  SPM (amount): 98016
  [PUT] (concentration): 0
  [SPD] (concentration): 0.05258
  [SPM] (concentration): 0.3167
[1]; [8]
  SPD (amount): 220260
  SPM (amount): 7071485
  [PUT] (concentration): 0
  [SPD] (concentration): 0.2703
  [SPM] (concentration): 22.85
[1]
  24 hr avg put: 0.01029
  24 hr avg spd: 1.209
  24 hr avg spm: 4.069
[1]; 48 hour treatment
  48 hr avg put: 0
  48 hr avg spd: 0.2122
  48 hr avg spm: 8.54

## NCCCNCCCCNCCCN [Spermine, spermine]
[2]
  toxicity of exogenous spermine (growth curves, OD600): more toxic
α-synuclein
  aggregation of α-synuclein: accelerate

## NCCCCNCCCN [spermidine]
α-synuclein
  aggregation of α-synuclein: accelerate
